# “Also recorded” adds a separate entry of the source. Where two headings read alike, the source gives them in different places.
# Legend:
# [1] = tested on: SARS-CoV-2; type: cell-based, SARS-CoV-2 (nCoV-2019BetaCoV/Wuhan/WIV04/2019 strain)
# [2] = tested on: SARS coronavirus; type: in vivo, A129 mice; conditions: for Death rate: once daily from 4 h to 144 h after challenge, 1*10^6 PFU; for Protection of SARS coronavirus-infected mice from death: intraperitoneal once a day from 4 hours after challenge, 50-200 mg/kg
# [3] = tested on: Vero E6 cells; conditions: Vero E6, 48 h
# [4] = tested on: EBOV-Zaire type; conditions: virus titer in supernatant, Vero E6 cell line, read-out: half-inhibitory concentration (IC50); cited from earlier work
# [5] = 300 mg/kg/d from day 6 to day 13, cited from earlier work
# [6] = tested on: Vero C1008 cells; conditions: high concentration of 1.95 g/L; cited from earlier work
# [7] = tested on: EBOV-Zaire type; conditions: drug concentration of above 62.5 mg/L; cited from earlier work
# [8] = cited from earlier work
smiles,measurement,setting,value
"NC(=O)c1nc(F)cnc1O [Favipiravir, 6-fluoro-3-hydroxypyrazine-2-carboxamide]",Reduction of viral RNA load in the cells,[1],the inhibitory activity is dose-dependent
same,Inhibition of replication of the SARS-CoV-2 virus genome in the infected supernatant,"[1]; at concentrations of 100 μM, 33 μM, 11.1 μM and 3.7 μM",could effectively inhibit
same,Reduction of viral nucleic acid load in cells infected by SARS-CoV-2,[1]; at micromolar concentration level,can reduce the viral nucleic acid load
same,Death rate,[2]; 50 mg/kg intraperitoneal,100%
same,Death rate,[2]; 100 mg/kg intraperitoneal,50%
same,Death rate,[2]; 200 mg/kg intraperitoneal,0%
same,Protection of SARS coronavirus-infected mice from death,[2],can effectively protect mice; also recorded: the survival rate is dose-dependent
same,Protection of SARS coronavirus-infected mice from death,[2]; listed as compound represented by Formula I,significant protective effect
same,Cell viability (% of vehicle control),[3]; 0.14 μM,101.61 ± 0.74 % of vehicle control
same,Cell viability (% of vehicle control),[3]; 0.41 μM,101.38 ± 3.85 % of vehicle control
same,Cell viability (% of vehicle control),[3]; 1.23 μM,98.57 ± 1.90 % of vehicle control
same,Cell viability (% of vehicle control),[3]; 3.70 μM,99.09 ± 4.91 % of vehicle control
same,Cell viability (% of vehicle control),[3]; 11.11 μM,96.42 ± 4.77 % of vehicle control
same,Cell viability (% of vehicle control),[3]; 33.33 μM,95.21 ± 4.43 % of vehicle control
same,Cell viability (% of vehicle control),[3]; 100 μM,96.37 ± 1.26 % of vehicle control
same,IC50,[4],67 µM
same,protection rate,[5]; challenge dose of 100% death of placebo group,100%
same,"body weight, glutamic-pyruvic transaminase, glutamic-oxalic transaminase, viremia",[5],improved significantly
same,Cytotoxicity to Vero C1008 cells,[6],not cytotoxic
same,Inhibition of cytopathic effect (CPE) of EBOV-Zaire type,[7],completely inhibit
same,mice protected from death,"[8]; intragastric 300 mg/kg/d (2 times/d, 150 mg/kg per time) from 1 h after challenge for 14 days",100%
same,body weight of the mice in the administration group,[8]; intragastric 300 mg/kg/d for 14 days,significantly improved
